From patent US20230085307A1, “PYRIDAZINONE COMPOUND AND HERBICIDE” (NISSAN CHEMICAL CORPORATION, priority 2019, published 2023)

Tests used:
chickweed [1] = test: Test Example 5: herbicidal effect by foliage application, plastic box (Table 20, symbol P); format: in vivo, common chickweed (Stellaria media); settings: foliage application, 320 g/ha, evaluated three weeks after application
In short: (§1)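 Plants sown in sterilized diluvial soil and grown 14 days in a greenhouse at 25° C to 30° C, then sprayed on the foliage with the compound's emulsion diluted in water to a predetermined herbicide amount. Injury to weeds and crops scored three weeks after application on a visual rating scale.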

Italian ryegrass [2] = test: Test Example 5: herbicidal effect by foliage application, plastic box (Table 20, symbol K); format: in vivo, Italian ryegrass (Lolium multiflorum); settings: foliage application, 320 g/ha, evaluated three weeks after application
In short: as §1

Chinese sprangletop = test: Test Example 3: herbicidal effect by foliage application, Wagner pot (Table 18, symbol D); format: in vivo, chinese sprangletop (Leptochloa chinensis); settings: 320 g/ha
In short: (§2)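 Plants were sown in alluvial soil held under 0.1–0.5 cm standing water and grown 14 days in a greenhouse at 25–30 °C. An emulsifiable formulation, water-diluted to the set dose, was then sprayed onto the foliage, and effects were scored three weeks later using previously defined criteria.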

velvetleaf [3] = test: Test Example 4: herbicidal effect by soil treatment (Table 19, symbol M); format: in vivo, velvetleaf (Abutilon theophrasti); settings: 320 g/ha
In short: (§3)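 Three weeks of greenhouse growth at 25° C. to 30° C. followed a uniform surface spray of water-diluted emulsion at a predetermined herbicide amount. Seeds had been sown beforehand under about 1.5 cm of sterilized diluvial soil. Grading followed criteria set out in an earlier test.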

false cleavers = test: Test Example 4: herbicidal effect by soil treatment (Table 19, symbol Q); format: in vivo, false cleavers (Galium spurium); settings: 320 g/ha
In short: as §3

lambsquarters [4] = test: Test Example 4: herbicidal effect by soil treatment (Table 19, symbol O); format: in vivo, lambsquarters (Chenopodium album); settings: 320 g/ha
In short: as §3

chickweed [5] = test: Test Example 4: herbicidal effect by soil treatment (Table 19, symbol P); format: in vivo, common chickweed (Stellaria media); settings: 320 g/ha
In short: as §3

velvetleaf [6] = test: Test Example 5: herbicidal effect by foliage application, plastic box (Table 20, symbol M); format: in vivo, velvetleaf (Abutilon theophrasti); settings: foliage application, 320 g/ha, evaluated three weeks after application
In short: as §1

barnyard grass [7] = test: Test Example 3: herbicidal effect by foliage application, Wagner pot (Table 18, symbol H); format: in vivo, barnyard grass (Echinochloa crus-galli); settings: 320 g/ha
In short: as §2

green foxtail [8] = test: Test Example 5: herbicidal effect by foliage application, plastic box (Table 20, symbol G); format: in vivo, green foxtail (Setaria viridis); settings: foliage application, 320 g/ha, evaluated three weeks after application
In short: as §1

southern crabgrass [9] = test: Test Example 4: herbicidal effect by soil treatment (Table 19, symbol F); format: in vivo, southern crabgrass (Digitaria ciliaris); settings: 320 g/ha
In short: as §3

redroot pigweed [10] = test: Test Example 5: herbicidal effect by foliage application, plastic box (Table 20, symbol N); format: in vivo, redroot pigweed (Amaranthus retroflexus); settings: foliage application, 320 g/ha, evaluated three weeks after application
In short: as §1

windgrass [11] = test: Test Example 4: herbicidal effect by soil treatment (Table 19, symbol L); format: in vivo, windgrass (Apera spica-venti); settings: 320 g/ha
In short: as §3

southern crabgrass [12] = test: Test Example 5: herbicidal effect by foliage application, plastic box (Table 20, symbol F); format: in vivo, southern crabgrass (Digitaria ciliaris); settings: foliage application, 320 g/ha, evaluated three weeks after application
In short: as §1

green foxtail [13] = test: Test Example 4: herbicidal effect by soil treatment (Table 19, symbol G); format: in vivo, green foxtail (Setaria viridis); settings: 320 g/ha
In short: as §3

barnyard grass [14] = test: Test Example 5: herbicidal effect by foliage application, plastic box (Table 20, symbol H); format: in vivo, barnyard grass (Echinochloa crus-galli); settings: foliage application, 320 g/ha, evaluated three weeks after application
In short: as §1

barnyard grass [15] = test: Test Example 4: herbicidal effect by soil treatment (Table 19, symbol H); format: in vivo, barnyard grass (Echinochloa crus-galli); settings: 320 g/ha
In short: as §3

rice flat sedge = test: Test Example 3: herbicidal effect by foliage application, Wagner pot (Table 18, symbol E); format: in vivo, rice flat sedge (Cyperus iria); settings: 320 g/ha
In short: as §2

wild oat [16] = test: Test Example 5: herbicidal effect by foliage application, plastic box (Table 20, symbol I); format: in vivo, wild oat (Avena fatua); settings: foliage application, 320 g/ha, evaluated three weeks after application
In short: as §1

blackgrass [17] = test: Test Example 5: herbicidal effect by foliage application, plastic box (Table 20, symbol J); format: in vivo, blackgrass (Alopecurus myosuroides); settings: foliage application, 320 g/ha, evaluated three weeks after application
In short: as §1

Italian ryegrass [18] = test: Test Example 4: herbicidal effect by soil treatment (Table 19, symbol K); format: in vivo, Italian ryegrass (Lolium multiflorum); settings: 320 g/ha
In short: as §3

lambsquarters [19] = test: Test Example 5: herbicidal effect by foliage application, plastic box (Table 20, symbol O); format: in vivo, lambsquarters (Chenopodium album); settings: foliage application, 320 g/ha, evaluated three weeks after application
In short: as §1

persian speedwell [20] = test: Test Example 4: herbicidal effect by soil treatment (Table 19, symbol R); format: in vivo, Persian speedwell (Veronica persica); settings: 320 g/ha
In short: as §3

redroot pigweed [21] = test: Test Example 4: herbicidal effect by soil treatment (Table 19, symbol N); format: in vivo, redroot pigweed (Amaranthus retroflexus); settings: 320 g/ha
In short: as §3

blackgrass [22] = test: Test Example 4: herbicidal effect by soil treatment (Table 19, symbol J); format: in vivo, blackgrass (Alopecurus myosuroides); settings: 320 g/ha
In short: as §3

windgrass [23] = test: Test Example 5: herbicidal effect by foliage application, plastic box (Table 20, symbol L); format: in vivo, windgrass (Apera spica-venti); settings: foliage application, 320 g/ha, evaluated three weeks after application
In short: as §1

wild oat [24] = test: Test Example 4: herbicidal effect by soil treatment (Table 19, symbol I); format: in vivo, wild oat (Avena fatua); settings: 320 g/ha
In short: as §3

persian speedwell [25] = test: Test Example 5: herbicidal effect by foliage application, plastic box (Table 20, symbol R); format: in vivo, Persian speedwell (Veronica persica); settings: foliage application, 320 g/ha, evaluated three weeks after application
In short: as §1

## Cc1nn(C)c(=O)c(-c2c(-c3ccc(F)cc3)sc3ccc(Cl)cc23)c1O [2-097]
Chickweed [1]
  herbicidal effect on P: chickweed: 5 (Herbicidal rate of 90% or more (almost completely withered))
Italian ryegrass [2]
  herbicidal effect on K: Italian ryegrass: 5 (Herbicidal rate of 90% or more (almost completely withered))
Chinese sprangletop
  herbicidal effect on D (Chinese sprangletop), rating 0-5: 3 (Herbicidal rate of 40% or more and less than 70%)
Velvetleaf [3]
  herbicidal effect rating, M: velvetleaf: 3 (Herbicidal rate of 40% or more and less than 70%)
False cleavers
  herbicidal effect rating, Q: false cleavers: 4 (Herbicidal rate of 70% or more and less than 90%)
Lambsquarters [4]
  herbicidal effect rating, O: lambsquarters: 5 (Herbicidal rate of 90% or more (almost completely withered))
Chickweed [5]
  herbicidal effect rating, P: chickweed: 5 (Herbicidal rate of 90% or more (almost completely withered))
Velvetleaf [6]
  herbicidal effect on M: velvetleaf: 5 (Herbicidal rate of 90% or more (almost completely withered))
Barnyard grass [7]
  herbicidal effect on H (barnyard grass), rating 0-5: 5 (Herbicidal rate of 90% or more (almost completely withered))
Green foxtail [8]
  herbicidal effect on G: green foxtail: 5 (Herbicidal rate of 90% or more (almost completely withered))
Southern crabgrass [9]
  herbicidal effect rating, F: southern crabgrass: 2 (Herbicidal rate of 20% or more and less than 40%)
Redroot pigweed [10]
  herbicidal effect on N: redroot pigweed: 5 (Herbicidal rate of 90% or more (almost completely withered))
Windgrass [11]
  herbicidal effect rating, L: windgrass: 5 (Herbicidal rate of 90% or more (almost completely withered))
Southern crabgrass [12]
  herbicidal effect on F: southern crabgrass: 5 (Herbicidal rate of 90% or more (almost completely withered))
Green foxtail [13]
  herbicidal effect rating, G: green foxtail: 3 (Herbicidal rate of 40% or more and less than 70%)
Barnyard grass [14]
  herbicidal effect on H: barnyard grass: 5 (Herbicidal rate of 90% or more (almost completely withered))
Barnyard grass [15]
  herbicidal effect rating, H: barnyard grass: 3 (Herbicidal rate of 40% or more and less than 70%)
Rice flat sedge
  herbicidal effect on E (rice flat sedge), rating 0-5: 4 (Herbicidal rate of 70% or more and less than 90%)
Wild oat [16]
  herbicidal effect on I: wild oat: 5 (Herbicidal rate of 90% or more (almost completely withered))
Blackgrass [17]
  herbicidal effect on J: blackgrass: 5 (Herbicidal rate of 90% or more (almost completely withered))
Italian ryegrass [18]
  herbicidal effect rating, K: Italian ryegrass: 5 (Herbicidal rate of 90% or more (almost completely withered))
Lambsquarters [19]
  herbicidal effect on O: lambsquarters: 5 (Herbicidal rate of 90% or more (almost completely withered))
Persian speedwell [20]
  herbicidal effect rating, R: persian speedwell: 5 (Herbicidal rate of 90% or more (almost completely withered))
Redroot pigweed [21]
  herbicidal effect rating, N: redroot pigweed: 5 (Herbicidal rate of 90% or more (almost completely withered))
Blackgrass [22]
  herbicidal effect rating, J: blackgrass: 5 (Herbicidal rate of 90% or more (almost completely withered))
Windgrass [23]
  herbicidal effect on L: windgrass: 5 (Herbicidal rate of 90% or more (almost completely withered))
Wild oat [24]
  herbicidal effect rating, I: wild oat: 1 (Herbicidal rate of 5% or more and less than 20%)
Persian speedwell [25]
  herbicidal effect on R: persian speedwell: 5 (Herbicidal rate of 90% or more (almost completely withered))
